Target: Human Factor D (Homo sapiens (Human), UniProt P00746)
Test: Human Factor D Assay
Format: biochemical
Conditions: Table 6; Factor D 80 nM, substrate Z-L-Lys-SBz; read-out: IC50
Outline: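 Thioester substrate Z-L-Lys-SBz (100 μM) with Ellman's reagent DTNB (100 μM) reports activity of 80 nM human serum-derived enzyme, kinetically at 405 nm over 30 min. Compound preincubated 5 min, room temperature, pH 7.5 Tris/1 M NaCl; IC50 by nonlinear fit of rates.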

Chain of Human Factor D (P00746 26-253): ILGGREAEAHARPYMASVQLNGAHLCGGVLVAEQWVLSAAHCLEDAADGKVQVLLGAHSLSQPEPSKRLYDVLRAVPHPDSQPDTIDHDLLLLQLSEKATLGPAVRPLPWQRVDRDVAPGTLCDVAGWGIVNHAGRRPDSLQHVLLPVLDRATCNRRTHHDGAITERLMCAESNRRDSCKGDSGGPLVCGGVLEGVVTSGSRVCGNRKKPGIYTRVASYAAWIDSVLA

Row | Compound | IC50
1 | C=CCOC[C@@]12C[C@@H](C(=O)Nc3nc(Br)ccc3C=C)N(C(=O)Cn3nc(C(C)=O)c4cc(-c5cnc(C)nc5)ccc43)[C@@H]1C2 [Compound 93, (1R,3S,5S)-2-(2-(3-Acetyl-5-(2-methylpyrimidin-5-yl)-1H-indazol-1-yl)acetyl)-5-((allyloxy)methyl)-N-(6-bromo-3-vinylpyridin-2-yl)-2-azabicyclo[3.1.0]hexane-3-carboxamide] | < 1 µM
2 | CNC[C@@]12C[C@@H](C(=O)Nc3nc(Br)ccc3C)N(C(=O)Cn3nc(C(C)=O)c4cc(-c5cnc(C)nc5)cc(C)c43)[C@@H]1C2 [Compound 94, (1R,3S,5R)-2-(2-(3-Acetyl-7-methyl-5-(2-methylpyrimidin-5-yl)-1H-indazol-1-yl)acetyl)-N-(6-bromo-3-methylpyridin-2-yl)-5-((methylamino)methyl)-2-azabicyclo[3.1.0]hexane-3-carboxamide] | < 1 µM
3 | CC(=O)c1nn(CC(=O)N2[C@H](C(=O)Nc3nc(Br)ccc3C)C[C@@]3(CNC(=O)C4=C(F)CCC4)C[C@@H]23)c2c(C)cc(-c3cnc(C)nc3)cc12 [Compound 95, (1R,3S,5R)-2-(2-(3-Acetyl-7-methyl-5-(2-methylpyrimidin-5-yl)-1H-indazol-1-yl)acetyl)-N-(6-bromo-3-methylpyridin-2-yl)-5-((2-fluorocyclopent-1-enecarboxamido)methyl)-2-azabicyclo[3.1.0]hexane-3-carboxamide] | < 1 µM
4 | CC(=O)NC[C@@]12C[C@@H](C(=O)Nc3nc(Br)ccc3C)N(C(=O)Cn3nc(C(C)=O)c4cc(-c5cnc(C)nc5)cc(C)c43)[C@@H]1C2 [Compound 96, (1R,3S,5R)-5-(Acetamidomethyl)-2-(2-(3-acetyl-7-methyl-5-(2-methylpyrimidin-5-yl)-1H-indazol-1-yl)acetyl)-N-(6-bromo-3-methylpyridin-2-yl)-2-azabicyclo[3.1.0]hexane-3-carboxamide] | < 1 µM
5 | CC(=O)c1nn(CC(=O)N2[C@H](C(=O)Nc3nc(Br)ccc3C)C[C@@]3(CNC(=O)c4ccccc4F)C[C@@H]23)c2c(C)cc(-c3cnc(C)nc3)cc12 [Compound 97, (1R,3S,5R)-2-(2-(3-Acetyl-7-methyl-5-(2-methylpyrimidin-5-yl)-1H-indazol-1-yl)acetyl)-N-(6-bromo-3-methylpyridin-2-yl)-5-((2-fluorobenzamido)methyl)-2-azabicyclo[3.1.0]hexane-3-carboxamide] | < 1 µM
6 | COC[C@@]12C[C@@H](C(=O)Nc3nc(Br)ccc3C)N(C(=O)Cn3nc(C(C)=O)c4cc(-c5cnc(C)nc5)cc(C)c43)[C@@H]1C2 [Compound 98, (1R,3S,5S)-2-(2-(3-Acetyl-7-methyl-5-(2-methylpyrimidin-5-yl)-1H-indazol-1-yl)acetyl)-N-(6-bromo-3-methylpyridin-2-yl)-5-(methoxymethyl)-2-azabicyclo[3.1.0]hexane-3-carboxamide] | < 1 µM
7 | COC(=O)N[C@H](C(=O)NC[C@@]12C[C@@H](C(=O)Nc3nc(Br)ccc3C)N(C(=O)Cn3nc(C(C)=O)c4cc(-c5cnc(C)nc5)cc(C)c43)[C@@H]1C2)C(C)C [Compound 99, methyl ((S)-1-((((lR,3S,5R)-2-(2-(3-acetyl-7-methyl-5-(2-methylpyrimidin-5-yl)-1H-indazol-1-yl)acetyl)-3-((6-bromo-3-methylpyridin-2-yl)carbamoyl)-2-azabicyclo[3.1.0]hexan-5-yl)methyl)amino)-3-methyl-1-oxobutan-2-yl)carbamate] | < 1 µM
8 | CC(=O)c1nn(CC(=O)N2[C@H](C(=O)Nc3nc(Br)ccc3C)C[C@@]3(CN(C)C)C[C@@H]23)c2c(C)cc(-c3cnc(C)nc3)cc12 [Compound 100, (1R,3S,5R)-2-(2-(3-acetyl-7-methyl-5-(2-methylpyrimidin-5-yl)-1H-indazol-1-yl)acetyl)-N-(6-bromo-3-methylpyridin-2-yl)-5-((dimethylamino)methyl)-2-azabicyclo[3.1.0]hexane-3-carboxamide] | < 1 µM
9 | CC(=O)c1nn(CC(=O)N2[C@H](C(=O)Nc3nc(Br)ccc3C)C[C@@]3(CNS(C)(=O)=O)C[C@@H]23)c2c(C)cc(-c3cnc(C)nc3)cc12 [Compound 101, (1R,3S,5R)-2-(2-(3-Acetyl-7-methyl-5-(2-methylpyrimidin-5-yl)-1H-indazol-1-yl)acetyl)-N-(6-bromo-3-methylpyridin-2-yl)-5-(methylsulfonamidomethyl)-2-azabicyclo[3.1.0]hexane-3-carboxamide] | < 1 µM
10 | CC(=O)c1nn(CC(=O)N2[C@H](C(=O)Nc3nc(Br)ccc3C)C[C@@]3(CNC(=O)CC(F)(F)F)C[C@@H]23)c2c(C)cc(-c3cnc(C)nc3)cc12 [Compound 102, (1R,3S,5R)-2-(2-(3-Acetyl-7-methyl-5-(2-methylpyrimidin-5-yl)-1H-indazol-1-yl)acetyl)-N-(6-bromo-3-methylpyridin-2-yl)-5-((3,3,3-trifluoropropanamido)methyl)-2-azabicyclo[3.1.0]hexane-3-carboxamide] | < 1 µM
11 | CC(=O)c1nn(CC(=O)N2[C@H](C(=O)Nc3nc(Br)ccc3C)C[C@@]3(C)C[C@@H]23)c2ccc(-c3cnc(CN(C)C)nc3)cc12 [Compound 103, (1R,3S,5R)-2-(2-(3-Acetyl-5-(2-((dimethylamino)methyl)pyrimidin-5-yl)-1H-indazol-1-yl)acetyl)-N-(6-bromo-3-methylpyridin-2-yl)-5-methyl-2-azabicyclo[3.1.0]hexane-3-carboxamide] | < 1 µM
12 | CC(=O)c1nn(CC(=O)N2[C@H](C(=O)Nc3nc(Br)c(F)cc3C)C[C@@]3(C)C[C@@H]23)c2cnc(-c3cnc(C)nc3)cc12 [Compound 104, (1R,3S,5R)-2-(2-(3-Acetyl-5-(2-methylpyrimidin-5-yl)-1H-pyrazolo[3,4-c]pyridin-1-yl)acetyl)-N-(6-bromo-5-fluoro-3-methylpyridin-2-yl)-5-methyl-2-azabicyclo[3.1.0]hexane-3-carboxamide] | < 1 µM
13 | CC(=O)c1nn(CC(=O)N2[C@H](C(=O)Nc3cccc(O)n3)C[C@@]3(C)C[C@@H]23)c2c(C)cc(-c3cnc(C)nc3)cc12 [Compound 105, (1R,3S,5R)-2-(2-(3-Acetyl-7-methyl-5-(2-methylpyrimidin-5-yl)-1H-indazol-1-yl)acetyl)-N-(6-hydroxypyridin-2-yl)-5-methyl-2-azabicyclo[3.1.0]hexane-3-carboxamide] | < 1 µM
14 | COc1ncc(-c2ccc3c(c2)c(C(C)=O)nn3CC(=O)N2[C@H](C(=O)Nc3cccc(Br)n3)C[C@@]3(C)C[C@@H]23)cn1 [Compound 108, (1R,3S,5R)-2-(2-(3-Acetyl-5-(2-methoxypyrimidin-5-yl)-1H-indazol-1-yl)acetyl)-N-(6-bromopyridin-2-yl)-5-methyl-2-azabicyclo[3.1.0]hexane-3-carboxamide] | < 1 µM
15 | CC(=O)c1nn(CC(=O)N2C[C@H]3C[C@H]3[C@H]2C(=O)O)c2c(C)cc(-c3cnc(C)nc3)cc12 [Compound 111, (1R,2S,5S)-3-(2-(3-acetyl-7-methyl-5-(2-methylpyrimidin-5-yl)-1H-indazol-1-yl)acetyl)-3-azabicyclo[3.1.0]hexane-2-carboxylic acid] | > 10 µM
16 | CC(=O)c1nn(CC(=O)N2[C@H](C(=O)Nc3nc(Br)ccc3C3CC3)C[C@@]3(CN(C)C)C[C@@H]23)c2ccc(-c3cnc(C)nc3)cc12 [Compound 112, (1R,3S,5R)-2-(2-(3-Acetyl-5-(2-methylpyrimidin-5-yl)-1H-indazol-1-yl)acetyl)-N-(6-bromo-3-cyclopropylpyridin-2-yl)-5-((dimethylamino)methyl)-2-azabicyclo[3.1.0]hexane-3-carboxamide] | < 1 µM
17 | CC(=O)c1nn(CC(=O)N2[C@H](C(=O)Nc3nc(Br)ccc3C)C[C@@]3(CNCCF)C[C@@H]23)c2c(C)cc(-c3cnc(C)nc3)cc12 [Compound 113, (1R,3S,5R)-2-(2-(3-Acetyl-7-methyl-5-(2-methylpyrimidin-5-yl)-1H-indazol-1-yl)acetyl)-N-(6-bromo-3-methylpyridin-2-yl)-5-((2-fluoroethylamino)methyl)-2-azabicyclo[3.1.0]hexane-3-carboxamide] | < 1 µM
18 | COCc1cc(-c2cnc(C)nc2)cc2c(C(C)=O)nn(CC(=O)N3[C@H](C(=O)Nc4nc(Br)ccc4C)C[C@@]4(COC)C[C@@H]34)c12 [Compound 114, (1R,3S,5S)-2-(2-(3-Acetyl-7-(methoxymethyl)-5-(2-methylpyrimidin-5-yl)-1H-indazol-1-yl)acetyl)-N-(6-bromo-3-methylpyridin-2-yl)-5-(methoxymethyl)-2-azabicyclo[3.1.0]hexane-3-carboxamide] | < 1 µM
19 | Cc1ncc(-c2cc(C)c3c(c2)c(C(C)O)nn3CC(=O)N2C[C@H]3C[C@H]3[C@H]2C(=O)Nc2nc(Br)ccc2C)cn1 (stereo partly drawn) [Compound 115, (1R,2S,5S)-N-(6-bromo-3-methylpyridin-2-yl)-3-(2-(3-(1-hydroxyethyl)-7-methyl-5-(2-methylpyrimidin-5-yl)-1H-indazol-1-yl)acetyl)-3-azabicyclo[3.1.0]hexane-2-carboxamide] | 1 to 10 µM
20 | CC(=O)c1nn(CC(=O)N2[C@H](C(=O)Nc3cc(F)cc(Br)n3)C[C@@]3(C)C[C@@H]23)c2c(C)cc(-c3cnc(C)nc3)cc12 [Compound 116, (1R,3S,5R)-2-(2-(3-Acetyl-7-methyl-5-(2-methylpyrimidin-5-yl)-1H-indazol-1-yl)acetyl)-N-(6-bromo-4-fluoropyridin-2-yl)-5-methyl-2-azabicyclo[3.1.0]hexane-3-carboxamide] | < 1 µM
21 | CC(=O)c1nn(CC(=O)N2C[C@H](F)C[C@H]2C(=O)Nc2nc(Br)ccc2CC(=O)N(C)C)c2ccc(-c3cnc(C)nc3)cc12 [Compound 117, (2S,4R)-1-(2-(3-Acetyl-5-(2-methylpyrimidin-5-yl)-1H-indazol-1-yl)acetyl)-N-(6-bromo-3-(2-(dimethylamino)-2-oxoethyl)pyridin-2-yl)-4-fluoropyrrolidine-2-carboxamide] | < 1 µM
